The source of these data is patent US20200131142A1, “FARNESOID X RECEPTOR AGONISTS AND USES THEREOF” (Metacrine, Inc., priority 2017, published 2020).

Usually EC50 stands for the concentration giving half of the maximal effect. A lower EC50 goes with higher potency in that assay.

For the experiment, the target named is T1, hFXR (Homo sapiens, UniProt Q96RI1).
T1 construct: expressed in transfected cells; host or cells: CV-1 cells
T1 sequence (Q96RI1 1-486): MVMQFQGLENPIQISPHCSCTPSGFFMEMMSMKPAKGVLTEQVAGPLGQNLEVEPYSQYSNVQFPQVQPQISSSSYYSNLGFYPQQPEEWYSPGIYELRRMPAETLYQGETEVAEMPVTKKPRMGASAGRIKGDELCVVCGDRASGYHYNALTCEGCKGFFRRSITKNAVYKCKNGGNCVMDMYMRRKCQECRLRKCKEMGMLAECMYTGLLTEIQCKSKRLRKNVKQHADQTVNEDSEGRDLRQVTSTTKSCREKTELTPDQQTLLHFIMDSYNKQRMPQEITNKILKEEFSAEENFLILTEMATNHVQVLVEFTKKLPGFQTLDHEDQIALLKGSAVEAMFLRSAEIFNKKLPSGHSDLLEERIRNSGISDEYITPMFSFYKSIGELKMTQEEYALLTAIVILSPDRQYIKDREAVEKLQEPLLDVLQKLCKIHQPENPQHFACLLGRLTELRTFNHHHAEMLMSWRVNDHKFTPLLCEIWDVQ
T1 sequence (P19793 1-462 partner): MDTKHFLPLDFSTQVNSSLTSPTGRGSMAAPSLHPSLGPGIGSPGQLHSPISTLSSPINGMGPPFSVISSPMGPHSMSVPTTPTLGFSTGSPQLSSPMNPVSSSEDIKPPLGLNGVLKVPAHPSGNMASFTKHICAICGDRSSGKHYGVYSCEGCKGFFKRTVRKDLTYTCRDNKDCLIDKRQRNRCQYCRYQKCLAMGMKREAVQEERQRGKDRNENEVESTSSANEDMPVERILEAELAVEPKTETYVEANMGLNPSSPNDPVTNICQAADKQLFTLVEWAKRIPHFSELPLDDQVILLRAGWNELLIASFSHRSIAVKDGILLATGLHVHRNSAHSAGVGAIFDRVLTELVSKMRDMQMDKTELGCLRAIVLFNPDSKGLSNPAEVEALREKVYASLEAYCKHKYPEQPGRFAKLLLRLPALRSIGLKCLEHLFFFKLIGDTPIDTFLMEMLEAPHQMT
Briefly: In Vitro FXR Assay (TK): hFXR/hRXR TK-ECRE-luc reporter in transfected CV-1 cells. Format: cell-based. The following applies: 18 hrs incubation, luminescence, compounds with maximum efficacy <25% of the Fexarmine control classified as '+'. The method, then: Example B-1: In Vitro FXR Assay (TK)
CV-1 cells were seeded at a density of 2,000,000 cells in a T175 flask with DMEM+10% charcoal double-stripped FBS and incubated at 37° C. in 5% CO2 for 18 h (O/N).
After 18 h of incubation, the medium in the T175 flask was changed with fresh DMEM+10% charcoal super-stripped serum. In a polypropylene tube, 2500 μL OptiMEM (Life Technologies, Cat #31985-062) was combined with expression plasmids for hFXR, hRXR, TK-ECRE-luc and pCMX-YFP. The tube was then briefly vortexed and incubated at room temperature for 5 minutes. Transfection reagent (X-tremeGENE HP from Roche, Cat #06 366 236 001) was added to the OptiMEM/plasmid mixture vortexed and incubated at room temperature for 20 minutes. Following incubation, the transfection reagent/DNA mixture complex was added to cells in the T175 flask and the cells were incubated at 37° C. in 5% CO2 for 18 h (O/N).
Compounds were serially diluted in DMSO and added to transfected CV-1 cells. The cells were then incubated for 18 hrs. The next day cells were lysed and examined for luminescence.
Consider `COc1ccc([C@H]2CC[C@H](CN(c3cccc(-c4cnc(N5CCCCC5)s4)c3)C(=O)[C@H]3CC[C@H](O)CC3)CC2)cc1C` [Compound 7.14, trans-4-Hydroxy-N-((trans-4-(4-methoxy-3-methylphenyl)cyclohexyl)methyl)-N-(3-(2-(piperidin-1-yl)thiazol-5-yl)phenyl)cyclohexanecarboxamide], for which the EC50 is at most 250 nM.

Turning to `COc1ccc([C@H]2CC[C@H](CN(c3cccc(-c4cnc(OC(F)F)s4)c3)C(=O)[C@H]3CC[C@H](O)CC3)CC2)cc1C` [Compound 9.01, trans-N-(3-(2-(Difluoromethoxy)thiazol-5-yl)phenyl)-4-hydroxy-N-((trans-4-(4-methoxy-3-methylphenyl)cyclohexyl)methyl) cyclohexanecarboxamide], the EC50 was at most 250 nM.

In the case of `COc1ccc([C@H]2CC[C@H](CN(c3cccc(-c4cnc(C)s4)c3)C(=O)[C@H]3CC[C@H](O)CC3)CC2)cc1C` [Compound 6.03, trans-4-Hydroxy-N-((trans-4-(4-methoxy-3-methylphenyl)cyclohexyl)methyl)-N-(3-(2-methylthiazol-5-yl)phenyl)cyclohexanecarboxamide], the EC50 was at most 250 nM.

`COc1ncc(-c2cccc(N(C[C@@H]3CC[C@@H](c4ccc(OC)c(C)c4)C(C)C3)C(=O)[C@H]3CC[C@H](O)CC3)c2)s1` (stereo partly drawn) [Compound 9.12, trans-4-Hydroxy-N-((trans-4-(4-methoxy-3-methylphenyl)-3-methylcyclohexyl)methyl)-N-(3-(2-methoxythiazol-5-yl)phenyl)cyclohexanecarboxamide] gave an EC50 of at most 250 nM.

As for `Cn1ncc2cc([C@H]3CC[C@H](CN(c4cccc(-c5cnc(C6CC6)s5)c4)C(=O)[C@H]4CC[C@H](O)CC4)CC3)ccc21` [Compound 9.16, trans-N-(3-(2-Cyclopropylthiaol-5-yl)phenyl)-4-hydroxy-N-((trans-4-(1-methyl-1H-indazol-5-yl)cyclohexyl)methyl)cyclohexanecarboxamide], the EC50 is at most 250 nM.

`COc1ccc([C@H]2CC[C@H](CN(c3cccc(-c4cnc(C(C)(C)C)s4)c3)C(=O)[C@H]3CC[C@H](O)CC3)CC2)cc1C` [Compound 7.07, trans-N-(3-(2-(tert-Butyl)thiazol-5-yl)phenyl)-4-hydroxy-N-((trans-4-(4-methoxy-3-methylphenyl)cyclohexyl)methyl) cyclohexanecarboxamide]: the EC50 was at most 250 nM.

As for `COc1ccc([C@H]2CC[C@H](CN(c3cccc(CNc4nccs4)c3)C(=O)[C@H]3CC[C@H](O)CC3)CC2)cc1C` [Compound 14, trans-4-Hydroxy-N-((trans-4-(4-methoxy-3-methylphenyl)cyclohexyl)methyl)-N-(3-((thiazol-2-ylamino)methyl)phenyl)cyclohexanecarboxamide], the EC50 is at least 1000 nM.

`COc1ncc(-c2cccc(N(CC34CCC(c5ccc(OC)c(C)c5)(CC3)CC4)C(=O)[C@H]3CC[C@H](O)CC3)c2)s1` [Compound 11, trans-4-Hydroxy-N-((4-(4-methoxy-3-methylphenyl)bicyclo[2.2.2]octan-1-yl)methyl)-N-(3-(2-methoxythiazol-5-yl)phenyl)cyclohexanecarboxamide]: the EC50 was at most 250 nM.

With `COc1ncc(-c2cccc(N(C[C@H]3CC[C@H](c4ccc(OC)c(C)c4)CC3)C(=O)C3CCC(F)(F)CC3)c2)s1` [Compound 9.32, 4,4-Difluoro-N-((trans-4-(4-methoxy-3-methylphenyl)cyclohexyl)methyl)-N-(3-(2-methoxythiazol-5-yl)phenyl)cyclohexanecarboxamide], the EC50 is at most 250 nM.

As for `COc1ccc([C@H]2CC[C@H](CN(c3cc(-c4cnc(C5CC5)s4)ccn3)C(=O)[C@H]3CC[C@H](O)CC3)CC2)nc1C` [Compound 9.20, trans-N-(4-(2-Cyclopropylthiazol-5-yl)pyridin-2-yl)-4-hydroxy-N-((trans-4-(5-methoxy-6-methylpyridin-2-yl)cyclohexyl)methyl)cyclohexanecarboxamide], the EC50 is at most 250 nM.

`COc1ncc(-c2cccc(N(C[C@H]3CC[C@H](c4ccc(OC)c(C)c4)CC3)C(=O)[C@H]3CC[C@H](C)CC3)c2)s1` [Compound 9.31, trans-N-((trans-4-(4-Methoxy-3-methylphenyl)cyclohexyl)methyl)-N-(3-(2-methoxythiazol-5-yl)phenyl)-4-methylcyclohexanecarboxamide] gave an EC50 of at most 250 nM.

In turn, `CCO[C@H]1CC[C@H](C(=O)N(C[C@H]2CC[C@H](c3ccc(OC)c(C)c3)CC2)c2cccc(-c3cnc(OC)s3)c2)CC1` [Compound 4, trans-4-Ethoxy-N-((trans-4-(4-methoxy-3-methylphenyl)cyclohexyl)methyl)-N-(3-(2-methoxythiazol-5-yl)phenyl)cyclohexanecarboxamide] showed a 50% effective concentration (EC50) of 250 to 1000 nM.

For the compound `COc1ncc(-c2cccc(N(C[C@H]3CC[C@H](c4cnc(OC)c(Cl)c4)CC3)C(=O)[C@H]3CC[C@H](O)CC3)c2)s1` [Compound 9.04, trans-N-((trans-4-(5-Chloro-6-methoxypyridin-3-yl)cyclohexyl)methyl)-4-hydroxy-N-(3-(2-methoxythiazol-5-yl)phenyl)cyclohexanecarboxamide], the EC50 was at most 250 nM.

As to `COc1ncc(-c2cccc(N(CC3CCC(c4ccc(OC)c(C)c4)CC3C)C(=O)[C@H]3CC[C@H](O)CC3)c2)s1` (stereo partly drawn) [Compound 12, trans-4-Hydroxy-N-((4-(4-methoxy-3-methylphenyl)-2-methylcyclohexyl)methyl)-N-(3-(2-methoxythiazol-5-yl)phenyl)cyclohexanecarboxamide], the EC50 is at most 250 nM.

As to `COc1ccc([C@H]2CC[C@H](CN(c3cccc(-c4csc(C)n4)c3)C(=O)[C@H]3CC[C@H](O)CC3)CC2)cc1C` [Compound 7.02, trans-4-Hydroxy-N-((trans-4-(4-methoxy-3-methylphenyl)cyclohexyl)methyl)-N-(3-(2-methylthiazol-4-yl)phenyl)cyclohexanecarboxamide], the EC50 was in the range of 250 to 1000 nM.

`COc1ccc([C@H]2CC[C@H](CN(c3cccc(CCc4nccs4)c3)C(=O)[C@H]3CC[C@H](O)CC3)CC2)cc1C` [Compound 6.07, trans-4-Hydroxy-N-((trans-4-(4-methoxy-3-methylphenyl)cyclohexyl)methyl)-N-(3-(2-(thiazol-2-yl)ethyl)phenyl)cyclohexanecarboxamide] gave a concentration giving a half-maximal response (EC50) of at most 250 nM.

Compound `CCc1ncc(-c2cccc(N(C[C@H]3CC[C@H](c4ccc(OC)c(C)c4)CC3)C(=O)[C@H]3CC[C@H](O)CC3)c2)s1` [Compound 7.05, trans-N-(3-(2-Ethylthiazol-5-yl)phenyl)-4-hydroxy-N-((trans-4-(4-methoxy-3-methylphenyl)cyclohexyl)methyl) cyclohexanecarboxamide] gave an EC50 of at most 250 nM.

For the compound `COc1ccc([C@H]2CC[C@H](CN(c3cccc(-c4cnc(C#N)s4)c3)C(=O)[C@H]3CC[C@H](O)CC3)CC2)cc1C` [Compound 7.26, trans-N-(3-(2-Cyanothiazol-5-yl)phenyl)-4-hydroxy-N-((trans-4-(4-methoxy-3-methylphenyl)cyclohexyl)methyl) cyclohexanecarboxamide], the EC50 was 250 to 1000 nM.

Regarding `COc1ccc([C@H]2CC[C@H](CN(c3cccc(-c4cnc(C5CC5)s4)c3)C(=O)[C@H]3CC[C@H](O)CC3)CC2)cc1C#N` [Compound 7.29, trans-N-((trans-4-(3-Cyano-4-methoxyphenyl)cyclohexyl)methyl)-N-(3-(2-cyclopropylthiazol-5-yl)phenyl)-4-hydroxycyclohexanecarboxamide], the EC50 is at most 250 nM.

The compound `COc1ccc([C@H]2CC[C@H](CN(c3cccc(C#Cc4nc(C)cs4)c3)C(=O)[C@H]3CC[C@H](O)CC3)CC2)cc1C` [Compound 8.03, trans-4-Hydroxy-N-((trans-4-(4-methoxy-3-methylphenyl)cyclohexyl)methyl)-N-(3-((4-methylthiazol-2-yl)ethynyl)phenyl)cyclohexanecarboxamide] registered an EC50 of at most 250 nM.
